The nature of data set [1]: Dissolution test by stirring method in saline. To be noted: per BET surface area, mass ratio 1:50, stirring 500 rpm, 37° C., 3 hours.
Method: The amount of dissolved Zn^2+ ions is measured in the present description, as follows: The surface areas of samples, which are produced with varying pH values at production by the same process as that for Preparation Example 2 of Examples to be described later, are measured beforehand by the BET method (BET specific surface area analyzer: High Precision, Multi-Analyte Gas Absorption Analyzer, manufactured by Quantachrome Instruments Japan G.K.). For each sample, the Zn^2+ ion concentration after stirring in saline is measured with an ICP emission spectrometer (ICPE-9000, manufactured by Shimadzu Corporation) to thereby obtain the amount of dissolved Zn^2+ ions, and then the amount of dissolved Zn^2+ ions is divided by the previously measured surface area. The mass ratio between each sample and the saline is set to 1:50, and the amount of Zn^2+ ions dissolved in the saline is measured after 3-hour stirring at 500 rpm at 37° C. by means of a rotor. […]
A dissolution test by a stirring method was conducted on 0.6 g each of dry powders obtained in Preparation Example 2 using 30 g of saline, and the amount of dissolved Zn^2+ ions and the pH were measured. […] Then the pH and the Zn^2+ ion concentration after the dissolution test were measured. […]
For a further data set, the system named is fibroblast. The note with it: cited from earlier work.
The test system of the next data set is skin. The note with it: in vivo; cited from earlier work.

Molecules are shown by their SMILES.

The values below come from US20180318343A1, “THERAPEUTIC AGENT FOR SKIN WOUND OR ROUGH SKIN” (JFE MINERAL COMPANY, LTD., priority 2015, published 2018).

As to `[OH-].[OH-].[Zn+2]` [zinc hydroxide], the “Amount of dissolved Zn^2+ ions after dissolution test” value in data set [1] is given as “less than 0.1 μg/m^2”.

For the compound `[Zn+2]` [zinc ions], the “zinc ion concentration that does not exhibit toxicity to a fibroblast” value with fibroblast is on record as “not more than 500 μmol/L”. The “zinc ion level leading to increased inflammatory cell infiltration in skin and remarkably delayed reepithelization” value in the data set on skin is on record as “not less than 15 mmol/L”.

Regarding `[O]=[Zn]` [zinc oxide], the “Amount of dissolved Zn^2+ ions after dissolution test” value in data set [1] is “sufficient”.
